Results on two compounds are retold here after article PMC11352961, “Peptide dendrimers transfecting CRISPR/Cas9 plasmid DNA: optimization and mechanism” (RSC Chemical Biology, 2024).

Broadly, the fraction remaining is the share of the starting amount still present when the sample was taken.

Data set [1] deals with HEK293 cells. Briefly: Cell viability by PrestoBlue assay after transfection, HEK cells. Format: cell-based. The settings on record: 4 h.
For data set [2] the following is noted: cited from earlier work.
The next data set has as its system HeLa cells. Kind of data set: Cell viability by PrestoBlue assay after transfection, HeLa cells. The settings on record: 4 h. It counts as cell-based.
Data set [3] has as its system HEK293 cells. Format: cell-based. As to conditions: 1 h.
The next data set can be described thus: in vitro. The settings on record: isolated enzyme proteinase k, pH 8.

Structures are written as SMILES. Bridge positions count the residues as written; N and C are the ends. Square brackets hold non-standard residues; d marks the D form. Side chains are listed from the residue outwards. Peptide text beside a SMILES is read from it. I, II: the chains in the order shown. * marks the point of attachment. Stearoyl = CCCCCCCCCCCCCCCCCC(=O)*; Palmitoyl = CCCCCCCCCCCCCCCC(=O)*

For `CCCCCCCCCCCCCCCC(=O)NCCCC[C@@H](NC(=O)[C@@H](CCCCNC(=O)CCCCCCCCCCCCCCC)NC(=O)[C@@H](CCCCNC(=O)[C@@H](CC(C)C)NC(=O)[C@@H](CC(C)C)NC(=O)[C@@H](CCCCNC(=O)[C@@H](CC(C)C)NC(=O)[C@@H](CCCCN)NC(=O)[C@@H](CCCCNC(=O)[C@@H](CC(C)C)NC(=O)[C@H](N)CCCCN)NC(=O)[C@@H](CC(C)C)NC(=O)[C@H](N)CCCCN)NC(=O)[C@@H](CC(C)C)NC(=O)[C@@H](CCCCN)NC(=O)[C@@H](CCCCNC(=O)[C@@H](CC(C)C)NC(=O)[C@H](N)CCCCN)NC(=O)[C@@H](CC(C)C)NC(=O)[C@H](N)CCCCN)NC(=O)[C@@H](CC(C)C)NC(=O)[C@@H](CC(C)C)NC(=O)[C@@H](CCCCNC(=O)[C@@H](CC(C)C)NC(=O)[C@@H](CCCCN)NC(=O)[C@@H](CCCCNC(=O)[C@@H](CC(C)C)NC(=O)[C@H](N)CCCCN)NC(=O)[C@@H](CC(C)C)NC(=O)[C@H](N)CCCCN)NC(=O)[C@@H](CC(C)C)NC(=O)[C@@H](CCCCN)NC(=O)[C@@H](CCCCNC(=O)[C@@H](CC(C)C)NC(=O)[C@H](N)CCCCN)NC(=O)[C@@H](CC(C)C)NC(=O)[C@H](N)CCCCN)C(N)=O` [DMH13, reference compound] (I: H-[dK][dL][dK]([dL-dK])[dK][dL][dK][dL][dL][dK][dK](Palmitoyl)[dK](Palmitoyl)-NH2 / II: H-[dK][dL][dK]([dL-dK])[dK][dL][dK][dL][dL] / III: H-[dK][dL][dK]([dL-dK])[dK][dL] / IV: H-[dK][dL][dK]([dL-dK])[dK][dL]; amide I:6-IV:C, I:9-II:C, II:6-III:C), in the data set on HEK293 cells [1], the “% viability HEK cells” value was found to be 96 ± 6%. In data set [2], the “pKa of dendrimer N-termini” value was ~6.5.

Regarding `CCCCCCCCCCCCCCCCCC(=O)NCCCC[C@H](NC(=O)[C@H](CCCCNC(=O)[C@H](CC(C)C)NC(=O)[C@H](CCCNC(=N)N)NC(=O)[C@H](CCCCNC(=O)[C@H](CC(C)C)NC(=O)[C@H](CCCNC(=N)N)NC(=O)[C@H](CCCCNC(=O)[C@H](CC(C)C)NC(=O)[C@@H](N)CCCNC(=N)N)NC(=O)[C@H](CC(C)C)NC(=O)[C@@H](N)CCCNC(=N)N)NC(=O)[C@H](CC(C)C)NC(=O)[C@H](CCCNC(=N)N)NC(=O)[C@H](CCCCNC(=O)[C@H](CC(C)C)NC(=O)[C@@H](N)CCCNC(=N)N)NC(=O)[C@H](CC(C)C)NC(=O)[C@@H](N)CCCNC(=N)N)NC(=O)[C@H](CC(C)C)NC(=O)[C@H](CCCNC(=N)N)NC(=O)[C@H](CCCCNC(=O)[C@H](CC(C)C)NC(=O)[C@H](CCCNC(=N)N)NC(=O)[C@H](CCCCNC(=O)[C@H](CC(C)C)NC(=O)[C@@H](N)CCCNC(=N)N)NC(=O)[C@H](CC(C)C)NC(=O)[C@@H](N)CCCNC(=N)N)NC(=O)[C@H](CC(C)C)NC(=O)[C@H](CCCNC(=N)N)NC(=O)[C@H](CCCCNC(=O)[C@H](CC(C)C)NC(=O)[C@@H](N)CCCNC(=N)N)NC(=O)[C@H](CC(C)C)NC(=O)[C@@H](N)CCCNC(=N)N)C(N)=O` [Z23] (I: H-RLK([Leu-Arg])RLKRLKK(Stearoyl)-NH2 / II: H-RLK([Leu-Arg])RLKRL / III: H-RLK([Leu-Arg])RL / IV: H-RLK([Leu-Arg])RL; amide I:6-IV:C, I:9-II:C, II:6-III:C), the “% viability HEK cells” value with HEK293 cells [1] is listed as 83 ± 2%. Besides, the “% viability HeLa cells” value with HeLa cells came out at 95 ± 5%. Also, in the data set on HEK293 cells [3], the “transfection of HEK cells with protease inhibition” value is given as 46%. Also, in “in vitro”, the amount remaining at 1 h, 200 µM amounted to 45%; the share remaining at 2 h, 200 µM was determined as 39.6%; the amount remaining at 3 h, 200 µM came to 24.6%; the share remaining at 12 h, 200 µM was 1.66%. The share remaining at 24 h, 200 µM in the data set “in vitro” turned out to be 1.73%.
